Results published in ChEMBL document CHEMBL1201861, “Genomics of Drug Sensitity in Cancer screening data, Wellcome Trust Sanger Institute”.

System: TE-5;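 also: inhibition of cell growth, read out by a cell viability assay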
Experiment: cells
Type: functional, cell-based, Homo sapiens
Details: Homo sapiens, TE-5
Description: SANGER: Inhibition of human TE-5 cell growth in a cell viability assay.

SMILES | IC50 [nM]
Cc1cn(-c2cc(NC(=O)c3ccc(C)c(Nc4nccc(-c5cccnc5)n4)c3)cc(C(F)(F)F)c2)cn1 [NILOTINIB] | > 2000

System: SW 962;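 also: growth inhibition of human SW962 cells, read out by a cell viability assay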
Experiment: cells
Type: functional, cell-based, Homo sapiens
Details: Homo sapiens, SW 962
Description: SANGER: Inhibition of human SW962 cell growth in a cell viability assay.

SMILES | IC50 [nM]
Cc1cn(-c2cc(NC(=O)c3ccc(C)c(Nc4nccc(-c5cccnc5)n4)c3)cc(C(F)(F)F)c2)cn1 [NILOTINIB] | > 2000

System: NOMO-1;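 also: growth inhibition of human NOMO-1 cells measured by a cell viability assay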
Experiment: cells
Type: functional, cell-based, Homo sapiens
Details: Homo sapiens, NOMO-1
Description: SANGER: Inhibition of human NOMO-1 cell growth in a cell viability assay.

SMILES | IC50 [nM]
Cc1cn(-c2cc(NC(=O)c3ccc(C)c(Nc4nccc(-c5cccnc5)n4)c3)cc(C(F)(F)F)c2)cn1 [NILOTINIB] | > 2000

System: SK-MEL-1;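 also: growth inhibition of human SK-MEL-1 cells, read out by a cell viability assay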
Experiment: cells
Type: functional, cell-based, Homo sapiens
Details: Homo sapiens, SK-MEL-1
Description: SANGER: Inhibition of human SK-MEL-1 cell growth in a cell viability assay.

SMILES | IC50 [nM]
Cc1cn(-c2cc(NC(=O)c3ccc(C)c(Nc4nccc(-c5cccnc5)n4)c3)cc(C(F)(F)F)c2)cn1 [NILOTINIB] | > 2000

System: 8-MG-BA;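 also: growth inhibition of 8-MG-BA cells, read out with a cell viability assay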
Experiment: cells
Type: functional, cell-based, Homo sapiens
Details: Homo sapiens, 8-MG-BA
Description: SANGER: Inhibition of human 8-MG-BA cell growth in a cell viability assay.

SMILES | IC50 [nM]
Cc1cn(-c2cc(NC(=O)c3ccc(C)c(Nc4nccc(-c5cccnc5)n4)c3)cc(C(F)(F)F)c2)cn1 [NILOTINIB] | > 2000

System: NCI-H747;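 also: growth inhibition of human NCI-H747 cells, read out by a cell viability assay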
Experiment: cells
Type: functional, cell-based, Homo sapiens
Details: Homo sapiens, NCI-H747
Description: SANGER: Inhibition of human NCI-H747 cell growth in a cell viability assay.

SMILES | IC50 [nM]
Cc1cn(-c2cc(NC(=O)c3ccc(C)c(Nc4nccc(-c5cccnc5)n4)c3)cc(C(F)(F)F)c2)cn1 [NILOTINIB] | > 2000

System: A101D;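 also: growth inhibition of the cell line, measured with a viability assay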
Experiment: cells
Type: functional, cell-based, Homo sapiens
Details: Homo sapiens, A101D
Description: SANGER: Inhibition of human A101D cell growth in a cell viability assay.

SMILES | IC50 [nM]
Cc1cn(-c2cc(NC(=O)c3ccc(C)c(Nc4nccc(-c5cccnc5)n4)c3)cc(C(F)(F)F)c2)cn1 [NILOTINIB] | > 2000

System: SK-N-FI;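 also: cell viability assay measuring growth inhibition of human SK-N-FI cells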
Experiment: cells
Type: functional, cell-based, Homo sapiens
Details: Homo sapiens, SK-N-FI
Description: SANGER: Inhibition of human SK-N-FI cell growth in a cell viability assay.

SMILES | IC50 [nM]
Cc1cn(-c2cc(NC(=O)c3ccc(C)c(Nc4nccc(-c5cccnc5)n4)c3)cc(C(F)(F)F)c2)cn1 [NILOTINIB] | > 2000

System: MSTO-211H
Experiment: cells
Type: functional, cell-based, Homo sapiens
Details: Homo sapiens, MSTO-211H
Description: SANGER: Inhibition of human MSTO-211H cell growth in a cell viability assay.

SMILES | IC50 [nM]
Cc1cn(-c2cc(NC(=O)c3ccc(C)c(Nc4nccc(-c5cccnc5)n4)c3)cc(C(F)(F)F)c2)cn1 [NILOTINIB] | > 2000

System: HC-1;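 also: growth inhibition of HC-1 cells measured by a cell viability assay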
Experiment: cells
Type: functional, cell-based, Homo sapiens
Details: Homo sapiens, HC-1
Description: SANGER: Inhibition of human HC-1 cell growth in a cell viability assay.

SMILES | IC50 [nM]
Cc1cn(-c2cc(NC(=O)c3ccc(C)c(Nc4nccc(-c5cccnc5)n4)c3)cc(C(F)(F)F)c2)cn1 [NILOTINIB] | > 2000

System: NB12;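 also: growth inhibition of human NB12 cells, read out by a cell viability assay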
Experiment: cells
Type: functional, cell-based, Homo sapiens
Details: Homo sapiens, NB12
Description: SANGER: Inhibition of human NB12 cell growth in a cell viability assay.

SMILES | IC50 [nM]
Cc1cn(-c2cc(NC(=O)c3ccc(C)c(Nc4nccc(-c5cccnc5)n4)c3)cc(C(F)(F)F)c2)cn1 [NILOTINIB] | > 2000

System: KP-N-YS;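 also: cell viability assay measuring inhibition of cell line growth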
Experiment: cells
Type: functional, cell-based, Homo sapiens
Details: Homo sapiens, KP-N-YS
Description: SANGER: Inhibition of human KP-N-YS cell growth in a cell viability assay.

SMILES | IC50 [nM]
Cc1cn(-c2cc(NC(=O)c3ccc(C)c(Nc4nccc(-c5cccnc5)n4)c3)cc(C(F)(F)F)c2)cn1 [NILOTINIB] | > 2000

System: J-RT3-T3-5;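 also: cell viability assay measuring growth inhibition of human J-RT3-T3-5 cells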
Experiment: cells
Type: functional, cell-based, Homo sapiens
Details: Homo sapiens, J-RT3-T3-5
Description: SANGER: Inhibition of human J-RT3-T3-5 cell growth in a cell viability assay.

SMILES | IC50 [nM]
Cc1cn(-c2cc(NC(=O)c3ccc(C)c(Nc4nccc(-c5cccnc5)n4)c3)cc(C(F)(F)F)c2)cn1 [NILOTINIB] | > 2000

System: D283 Med
Experiment: cells
Type: functional, cell-based, Homo sapiens
Details: Homo sapiens, D283 Med
Description: SANGER: Inhibition of human D-283MED cell growth in a cell viability assay.

SMILES | IC50 [nM]
Cc1cn(-c2cc(NC(=O)c3ccc(C)c(Nc4nccc(-c5cccnc5)n4)c3)cc(C(F)(F)F)c2)cn1 [NILOTINIB] | > 2000

System: IST-MEL1;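 also: growth inhibition of the cell line, read out with a cell viability assay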
Experiment: cells
Type: functional, cell-based, Homo sapiens
Details: Homo sapiens, IST-MEL1
Description: SANGER: Inhibition of human IST-MEL1 cell growth in a cell viability assay.

SMILES | IC50 [nM]
Cc1cn(-c2cc(NC(=O)c3ccc(C)c(Nc4nccc(-c5cccnc5)n4)c3)cc(C(F)(F)F)c2)cn1 [NILOTINIB] | > 2000

System: MOLT-16;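 also: growth inhibition of human MOLT-16 cells, read out with a cell viability assay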
Experiment: cells
Type: functional, cell-based, Homo sapiens
Details: Homo sapiens, MOLT-16
Description: SANGER: Inhibition of human MOLT-16 cell growth in a cell viability assay.

SMILES | IC50 [nM]
Cc1cn(-c2cc(NC(=O)c3ccc(C)c(Nc4nccc(-c5cccnc5)n4)c3)cc(C(F)(F)F)c2)cn1 [NILOTINIB] | > 2000

System: NB6;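 also: growth inhibition of NB6 cells, read out by a cell viability assay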
Experiment: cells
Type: functional, cell-based, Homo sapiens
Details: Homo sapiens, NB6
Description: SANGER: Inhibition of human NB6 cell growth in a cell viability assay.

SMILES | IC50 [nM]
Cc1cn(-c2cc(NC(=O)c3ccc(C)c(Nc4nccc(-c5cccnc5)n4)c3)cc(C(F)(F)F)c2)cn1 [NILOTINIB] | > 2000

System: ES6;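 also: growth inhibition of human ES6 cells, read out with a cell viability assay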
Experiment: cells
Type: functional, cell-based, Homo sapiens
Details: Homo sapiens, ES6
Description: SANGER: Inhibition of human ES6 cell growth in a cell viability assay.

SMILES | IC50 [nM]
Cc1cn(-c2cc(NC(=O)c3ccc(C)c(Nc4nccc(-c5cccnc5)n4)c3)cc(C(F)(F)F)c2)cn1 [NILOTINIB] | > 2000

System: ES4;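 also: growth inhibition of human ES4 cells, read out by a cell viability assay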
Experiment: cells
Type: functional, cell-based, Homo sapiens
Details: Homo sapiens, ES4
Description: SANGER: Inhibition of human ES4 cell growth in a cell viability assay.

SMILES | IC50 [nM]
Cc1cn(-c2cc(NC(=O)c3ccc(C)c(Nc4nccc(-c5cccnc5)n4)c3)cc(C(F)(F)F)c2)cn1 [NILOTINIB] | > 2000

System: CGTH-W-1;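 also: growth inhibition of human CGTH-W-1 cells measured by cell viability assay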
Experiment: cells
Type: functional, cell-based, Homo sapiens
Details: Homo sapiens, CGTH-W-1
Description: SANGER: Inhibition of human CGTH-W-1 cell growth in a cell viability assay.

SMILES | IC50 [nM]
Cc1cn(-c2cc(NC(=O)c3ccc(C)c(Nc4nccc(-c5cccnc5)n4)c3)cc(C(F)(F)F)c2)cn1 [NILOTINIB] | 649

System: NCI-H720;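 also: growth inhibition of human NCI-H720 cells determined by a cell viability assay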
Experiment: cells
Type: functional, cell-based, Homo sapiens
Details: Homo sapiens, NCI-H720
Description: SANGER: Inhibition of human NCI-H720 cell growth in a cell viability assay.

SMILES | IC50 [nM]
Cc1cn(-c2cc(NC(=O)c3ccc(C)c(Nc4nccc(-c5cccnc5)n4)c3)cc(C(F)(F)F)c2)cn1 [NILOTINIB] | > 2000

System: SF-268;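 also: growth inhibition of SF-268 cells determined with a cell viability assay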
Experiment: cells
Type: functional, cell-based, Homo sapiens
Details: Homo sapiens, SF-268
Description: SANGER: Inhibition of human SF268 cell growth in a cell viability assay.

SMILES | IC50 [nM]
Cc1cn(-c2cc(NC(=O)c3ccc(C)c(Nc4nccc(-c5cccnc5)n4)c3)cc(C(F)(F)F)c2)cn1 [NILOTINIB] | > 2000

System: OVCAR-4;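 also: growth inhibition of human OVCAR-4 cells, measured with a cell viability assay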
Experiment: cells
Type: functional, cell-based, Homo sapiens
Details: Homo sapiens, OVCAR-4
Description: SANGER: Inhibition of human OVCAR-4 cell growth in a cell viability assay.

SMILES | IC50 [nM]
Cc1cn(-c2cc(NC(=O)c3ccc(C)c(Nc4nccc(-c5cccnc5)n4)c3)cc(C(F)(F)F)c2)cn1 [NILOTINIB] | > 2000

System: NEC8;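 also: growth inhibition of human NEC8 cells, read out by a cell viability assay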
Experiment: cells
Type: functional, cell-based, Homo sapiens
Details: Homo sapiens, NEC8
Description: SANGER: Inhibition of human NEC8 cell growth in a cell viability assay.

SMILES | IC50 [nM]
Cc1cn(-c2cc(NC(=O)c3ccc(C)c(Nc4nccc(-c5cccnc5)n4)c3)cc(C(F)(F)F)c2)cn1 [NILOTINIB] | > 2000
